Assays:
Test in all cases: whole-cell conversion, HPLC
Format in all cases: cell-based
MpOMT [1] = biological target: T1, MpOMT (Mentha x piperita, UniProt Q6VMV8, S142A); details: 100 mg/L fed, 12 h, 23 °C; product (2S)-hesperetin
T1 construct: gene OMT4

MpOMT [2] = biological target: T2, MpOMT (Mentha x piperita, UniProt Q6VMV8, F133A); details: 100 mg/L fed, 12 h, 23 °C; product (2S)-hesperetin
T2 construct: gene OMT4

trThF3′H with CPR = biological target: T3, trThF3′H with CPR (Tricyrtis hirta, UniProt B9A9Y6); details: 100 mg/L fed, 12 h, 23 °C; product (2S)-eriodictyol; full-length CPR co-expressed
T3 construct: gene F3'H; 24-aa N-terminally truncated F3'H co-expressed with full-length Arabidopsis thaliana CPR from pETDuet-1 (pGH10) in E. coli BL21(DE3); whole-cell conversion; with NADPH--cytochrome P450 reductase 2 (Arabidopsis thaliana)
T3 sequence (B9A9Y6 25-505): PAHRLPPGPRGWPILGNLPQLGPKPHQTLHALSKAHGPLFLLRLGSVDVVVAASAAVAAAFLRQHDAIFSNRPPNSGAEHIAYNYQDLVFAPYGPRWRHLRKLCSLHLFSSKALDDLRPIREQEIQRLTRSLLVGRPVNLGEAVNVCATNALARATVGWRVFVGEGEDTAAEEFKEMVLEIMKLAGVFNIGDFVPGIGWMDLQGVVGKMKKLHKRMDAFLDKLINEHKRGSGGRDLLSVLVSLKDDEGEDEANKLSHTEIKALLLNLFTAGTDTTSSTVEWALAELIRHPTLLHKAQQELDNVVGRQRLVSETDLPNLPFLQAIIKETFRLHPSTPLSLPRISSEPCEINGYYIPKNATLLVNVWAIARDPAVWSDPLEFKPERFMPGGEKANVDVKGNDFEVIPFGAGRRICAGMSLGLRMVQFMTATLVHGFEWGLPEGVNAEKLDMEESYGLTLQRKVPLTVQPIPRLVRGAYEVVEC
T3 sequence (Q9SUM3 whole entry partner, the tested form may be a part): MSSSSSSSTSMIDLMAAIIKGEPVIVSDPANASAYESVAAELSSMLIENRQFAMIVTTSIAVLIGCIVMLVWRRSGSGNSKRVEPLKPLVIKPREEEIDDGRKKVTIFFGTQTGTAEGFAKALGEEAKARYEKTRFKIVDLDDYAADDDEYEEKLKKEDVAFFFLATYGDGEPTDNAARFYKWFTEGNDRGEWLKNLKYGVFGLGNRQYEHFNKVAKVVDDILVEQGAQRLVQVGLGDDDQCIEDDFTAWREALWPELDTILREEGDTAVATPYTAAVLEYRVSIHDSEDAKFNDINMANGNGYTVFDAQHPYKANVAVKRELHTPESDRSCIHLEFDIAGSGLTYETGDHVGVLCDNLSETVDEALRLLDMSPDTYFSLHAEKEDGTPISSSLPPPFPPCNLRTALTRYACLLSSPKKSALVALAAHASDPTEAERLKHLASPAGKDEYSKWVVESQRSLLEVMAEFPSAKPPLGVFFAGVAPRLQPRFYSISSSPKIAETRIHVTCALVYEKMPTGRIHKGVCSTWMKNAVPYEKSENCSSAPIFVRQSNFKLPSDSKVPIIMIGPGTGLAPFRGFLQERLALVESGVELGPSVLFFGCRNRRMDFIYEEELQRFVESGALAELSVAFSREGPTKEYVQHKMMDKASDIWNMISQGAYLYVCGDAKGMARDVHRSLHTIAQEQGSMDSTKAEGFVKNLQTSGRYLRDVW

T1 sequence (Q6VMV8 whole entry S142A): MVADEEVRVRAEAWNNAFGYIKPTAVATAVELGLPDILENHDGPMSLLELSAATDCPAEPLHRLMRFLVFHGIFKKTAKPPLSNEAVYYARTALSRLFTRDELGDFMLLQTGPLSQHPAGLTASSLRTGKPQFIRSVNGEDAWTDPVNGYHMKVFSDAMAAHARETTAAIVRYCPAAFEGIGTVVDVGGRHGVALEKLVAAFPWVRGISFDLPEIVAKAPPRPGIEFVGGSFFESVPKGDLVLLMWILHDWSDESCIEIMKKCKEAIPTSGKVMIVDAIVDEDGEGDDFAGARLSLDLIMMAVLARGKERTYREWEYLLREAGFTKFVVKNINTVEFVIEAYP
T2 sequence (Q6VMV8 whole entry F133A): as the sequence (Q6VMV8 whole entry S142A) above, with F133A, A142S counted along it

Structure (SMILES) | whole-cell conversion, HPLC (MpOMT [1]) | whole-cell conversion, HPLC (MpOMT [2]) | whole-cell conversion, HPLC (trThF3′H with CPR)
O=C1C[C@@H](c2ccc(O)c(O)c2)Oc2cc(O)cc(O)c21 [(2S)-eriodictyol] | three mutants (F115A, F133A, and S142A), which displayed significantly higher conversion rates | three mutants (F115A, F133A, and S142A), which displayed significantly higher conversion rates | 
O=C1C[C@@H](c2ccc(O)cc2)Oc2cc(O)cc(O)c21 [(2S)-naringenin] |  |  | the one harboring trThF3′H and CPR exhibited the highest (2S)-eriodictyol production

Reference: PMC10311525, “Restricting Promiscuity of Plant Flavonoid 3′-Hydroxylase and 4′-O-Methyltransferase Improves the Biosynthesis of (2S)-Hesperetin in E. coli” (Journal of Agricultural and Food Chemistry, 2023)
